Results from patent publication US11339136B2 (Novartis AG, priority 2016, dated 2022).
pIC50: −log10 of the molar value.

Biological target: T1, hNLRP3 (Homo sapiens, UniProt Q96P20)
T1 construct: THP-1 cells were purchased from the American Type Culture Collection; host or cells: THP-1 cells, PMA-differentiated
Test: IL-1β production in PMA-differentiated THP-1 cells stimulated with gramicidin
Assay type: cell-based
Conditions: gramicidin 5 μM, IL-1β in supernatant, Table 2
Procedure, shortened: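 THP-1 cells differentiated with PMA (10 μg/ml, 24 h, or 20 ng/ml, 16-18 h), replated in 2% FBS RPMI and preincubated with compound for 1 h before 5 μM gramicidin for 2 h. Supernatant IL-1β measured by ELISA (1% DMSO) or HTRF (0.38% DMSO).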

T1 sequence (Q96P20 whole entry): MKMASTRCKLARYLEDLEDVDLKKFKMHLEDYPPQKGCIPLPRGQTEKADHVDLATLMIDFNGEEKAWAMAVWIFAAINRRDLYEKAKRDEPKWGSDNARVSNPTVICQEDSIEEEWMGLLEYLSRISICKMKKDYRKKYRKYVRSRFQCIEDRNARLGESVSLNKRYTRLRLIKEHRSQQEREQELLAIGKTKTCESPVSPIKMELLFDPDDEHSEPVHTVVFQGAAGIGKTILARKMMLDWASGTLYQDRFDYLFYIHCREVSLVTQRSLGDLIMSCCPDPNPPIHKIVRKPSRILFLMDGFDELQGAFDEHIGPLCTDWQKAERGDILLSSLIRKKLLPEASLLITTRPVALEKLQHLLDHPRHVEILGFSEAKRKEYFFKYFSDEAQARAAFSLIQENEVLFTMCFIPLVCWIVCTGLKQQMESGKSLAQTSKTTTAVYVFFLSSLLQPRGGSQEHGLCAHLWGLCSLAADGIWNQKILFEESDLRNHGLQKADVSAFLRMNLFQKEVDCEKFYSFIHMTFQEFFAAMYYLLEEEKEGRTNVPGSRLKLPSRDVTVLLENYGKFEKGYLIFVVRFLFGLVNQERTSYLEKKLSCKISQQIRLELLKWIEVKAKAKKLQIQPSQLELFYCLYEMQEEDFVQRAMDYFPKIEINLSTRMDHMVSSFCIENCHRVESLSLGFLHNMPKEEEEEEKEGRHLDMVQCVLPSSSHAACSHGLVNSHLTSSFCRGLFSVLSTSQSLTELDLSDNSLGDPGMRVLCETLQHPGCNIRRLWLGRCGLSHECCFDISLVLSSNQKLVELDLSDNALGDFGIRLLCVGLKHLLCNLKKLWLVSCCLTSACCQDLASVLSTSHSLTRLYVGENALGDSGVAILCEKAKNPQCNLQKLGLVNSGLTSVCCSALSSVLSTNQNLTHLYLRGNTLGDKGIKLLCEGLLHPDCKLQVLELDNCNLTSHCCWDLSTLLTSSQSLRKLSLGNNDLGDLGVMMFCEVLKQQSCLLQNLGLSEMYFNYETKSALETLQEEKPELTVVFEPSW

How did the pIC50 turn out when `CC(C)c1ccc2c(c1NC(=O)NS(=O)(=O)c1cc(C(C)(C)O)cs1)CCC2` [Compound 175, 4-(2-hydroxypropan-2-yl)-N-(5-isopropyl-2,3-dihydro-1H-inden-4-ylcarbamoyl) thiophene-2-sulfonamide] was run?
The pIC50 was 4.46 to 4.82.

`O=C(Nc1c2c(cc3c1CCC3)CCC2)NS(=O)(=O)c1ncc(C2(O)CCC2)s1` [Compound 197, N-(1,2,3,5,6,7-hexahydros-indacen-4-ylcarbamoyl)-5-(1-hydroxycyclo-butyl)thiazole-2-sulfonamide] was tested. Which pIC50 did it give?
Its pIC50 is > 6.00.

How did the pIC50 turn out when `O=C(Nc1c2c(cc3c1CCC3)CCC2)NS(=O)(=O)c1ncc(C2(O)CCCCC2)s1` [Compound 193, N-(1,2,3,5,6,7-hexahydros-indacen-4-ylcarbamoyl)-5-(1-hydroxycyclohexyl) thiazole-2-sulfonamide] was run?
Its pIC50 is 5.30 to 6.00.

How did the pIC50 turn out when `O=C(Nc1c2c(c(Cl)c3c1CCC3)CCC2)NS(=O)(=O)c1ccc(C2(O)CC2)s1` [Compound 199, N-(8-chloro-1,2,3,5,6,7-hexahydros-indacen-4-ylcarbamoyl)-5-(1-hydroxycyclopropyl) thiophene-2-sulfonamide] was run?
Its pIC50 is 5.30 to 6.00.

How did the pIC50 turn out when `CC(C)c1cc(Cl)cc(C(C)C)c1NC(=O)NS(=O)(=O)c1cc(C2(O)CC2)co1` [Compound 236, N-(4-chloro-2,6-diisopropylphenyl-carbamoyl)-4-(1-hydroxycyclo-propyl)furan-2-sulfonamide] was run?
Its pIC50 is > 6.00.

With `CCc1cc(Cl)cc(CC)c1NC(=O)NS(=O)(=O)c1ncc(C(C)(C)O)s1` [Compound 170, N-(4-chloro-2,6-diethylphenylcarbamoyl)-5-(2-hydroxypropan-2-yl) thiazole-2-sulfonamide] as the compound, how does the pIC50 read?
Its pIC50 is 4.82 to 5.30.

With `CC(C)(O)c1csc(S(=O)(=O)NC(=O)Nc2c3c(c(C#N)c4c2CCC4)CCC3)c1` [Compound 224, N-(8-cyano-1,2,3,5,6,7-hexahydros-indacen-4-ylcarbamoyl)-4-(2-hydroxypropan-2-yl)thiophene-2-sulfonamide] as the compound, how does the pIC50 read?
Its pIC50 is > 6.00.
